For this assay, the system named is LNCaP cells. Description: Western blotting of Cyclin B1, Cyclin D1, γ-H2A.X, phosph-p53, p21. Type of assay: cell-based. Conditions: scrambled siRNA controls. The method, then: Western blotting: Twenty-five micrograms of protein were separated on 10% to 20% SDS-PAGE and transferred onto PVD filters (Millipore, Bedford, Mass.). Membranes were incubated with primary antibodies overnight at 4° C. followed by horseradish peroxidase-conjugated secondary antibodies, and developed with the Super Signal West Dura Extended Duration Substrate kit (Pierce). RBM3 antibody was generated in a rabbit against as peptide (Sigma-Gneosys, The Woodlands, Tex.). HSPA1A and CIRBP antibodies were obtained from Lifespan Biosciences (ProteinTech Group, Chicago, Ill.), phospho-Histone H2A.X antibody was obtained from Millipore. Other antibodies were purchased from Cell Signaling (Danvers, Mass.) and Santa Cruz (Santa Cruz, Calif.)
Prostate cancer cells PC-3 (FIG. 12A) and LNCaP (FIG. 12B) were transfected with 100 nM RBM3 or CIRBP SMARTpool siRNA. Forty-eight hours after transfection, cells were treated with 4 μg/ml cDDP or 1 μg/ml ADM for 4 h, and then moved back to normal medium for another 16 h. Cell lysates were subjected to Western blotting to detect Cyclin B1, Cyclin D1, phosph-histone H2A.X (Ser139) (γ-H2A.X), phosph-p53 (Ser15), and p21. Actin was used as a control for protein loading.

The values below come from US20110313233A1, “DOWN-REGULATION OF COLD SHOCK PROTEINS FOR CANCER TREATMENT” (THE JOHNS HOPKINS UNIVERSITY, priority 2010, published 2011).

Regarding `[NH2][Pt]([NH2])([Cl])[Cl]` [cDDP, cisplatin], the “activation of p53 by drug treatment” value is “activated”.
For `COc1cccc2c1C(=O)c1c(O)c3c(c(O)c1C2=O)C[C@@](O)(C(=O)CO)C[C@@H]3O[C@H]1C[C@H](N)[C@H](O)[C@H](C)O1` [ADM, adriamycin], the “activation of p53 by drug treatment” value is recorded as “activated”.
